Assay results taken from PMC4447598 (Annals of neurology, 2015).
“And” between values parts separate entries of the source, which are not always exact repeats. Identical values can stand only once.

Tests used:
[1] = tested on: APP/PS1 transgenic mice; assay: Morris water maze; format: in vivo, mouse
[2] = tested on: APP/PS1 transgenic mice; assay: Novel object recognition; format: in vivo, mouse; conditions: 5 mg/kg/d, 6 weeks treatment
[3] = target: Pyk2 (Homo sapiens, UniProt Q14289); assay: LanthaScreen Europium Kinase Binding Assay
[4] = tested on: Pyk2; assay: Activated pPyk2 levels in brain of APP/PS1 and WT mice; format: in vivo, mouse
[5] = Chronic; format: in vivo, beagle dogs
[6] = tested on: APP/PS1 transgenic mice; assay: Glial reaction in cortex; format: in vivo, mouse; conditions: 5 mg/kg/d, 7 weeks
[7] = tested on: Pyk2; assay: Acute brain slice assay, p-Pyk2; format: cell-based, mouse
[8] = tested on: APP/PS1 transgenic mice; assay: Synapse density in dentate gyrus; format: in vivo, mouse; conditions: 5 mg/kg/d, 7 weeks
[9] = tested on: Tau; assay: Tau biochemistry and histology in 3xTg-AD mice; format: in vivo, mouse
[10] = tested on: NR2B subunit of NMDA-type Glu receptors; assay: Acute brain slice assay, pY-1472 NR2B immunoblot relative to total NR2B; format: cell-based, mouse
[11] = ref [27]; cited from earlier work
[12] = AZD0530 pharmacokinetics in mice; format: in vivo, mouse
[13] = tested on: APP/Aβ; assay: APP metabolism and Aβ accumulation in brain of treated mice; format: in vivo, mouse; conditions: 5 mg/kg/d
[14] = APP/PS1 mice, 5 mg/kg/d, 1-2 weeks treatment
[15] = APP/PS1 mice, 5 mg/kg/d, 3-5 weeks treatment
[16] = RIPA extracts of TBS-insoluble material, 5 mg/kg/d 40 days
[17] = RIPA-insoluble fractions, 5 mg/kg/d 40 days

Pyk2 (Homo sapiens, UniProt Q14289), sequence (Q14289 whole entry): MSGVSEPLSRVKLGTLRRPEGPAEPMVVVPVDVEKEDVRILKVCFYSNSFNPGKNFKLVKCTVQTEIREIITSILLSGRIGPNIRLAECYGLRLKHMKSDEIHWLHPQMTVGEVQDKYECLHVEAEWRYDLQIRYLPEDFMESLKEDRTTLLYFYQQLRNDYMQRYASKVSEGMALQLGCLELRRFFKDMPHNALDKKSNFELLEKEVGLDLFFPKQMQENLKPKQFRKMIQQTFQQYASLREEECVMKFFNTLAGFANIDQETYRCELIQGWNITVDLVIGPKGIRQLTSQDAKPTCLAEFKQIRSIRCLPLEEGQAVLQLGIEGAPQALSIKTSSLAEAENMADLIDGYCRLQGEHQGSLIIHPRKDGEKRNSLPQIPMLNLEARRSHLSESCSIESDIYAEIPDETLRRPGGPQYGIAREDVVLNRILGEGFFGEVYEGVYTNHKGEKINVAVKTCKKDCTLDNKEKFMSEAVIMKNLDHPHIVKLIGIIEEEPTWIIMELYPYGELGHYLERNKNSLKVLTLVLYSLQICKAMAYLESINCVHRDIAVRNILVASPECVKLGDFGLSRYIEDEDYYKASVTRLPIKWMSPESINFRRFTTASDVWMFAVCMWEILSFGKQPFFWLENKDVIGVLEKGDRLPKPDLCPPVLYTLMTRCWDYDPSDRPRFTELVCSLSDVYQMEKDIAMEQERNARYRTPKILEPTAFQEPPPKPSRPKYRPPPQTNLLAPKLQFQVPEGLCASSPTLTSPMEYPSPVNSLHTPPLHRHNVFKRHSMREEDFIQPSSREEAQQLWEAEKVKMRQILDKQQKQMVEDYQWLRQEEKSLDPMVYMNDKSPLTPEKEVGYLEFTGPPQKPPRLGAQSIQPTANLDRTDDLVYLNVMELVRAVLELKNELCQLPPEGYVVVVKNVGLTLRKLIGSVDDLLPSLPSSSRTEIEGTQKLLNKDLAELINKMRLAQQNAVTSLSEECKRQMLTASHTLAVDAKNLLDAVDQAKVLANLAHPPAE

CN1CCN(CCOc2cc(OC3CCOCC3)c3c(Nc4c(Cl)ccc5c4OCO5)ncnc3c2)CC1 [AZD0530, N-(5-chloro-1,3-benzodioxol-4-yl)-7-[2-(4-methylpiperazin-1-yl)ethoxy]-5-(tetrahydro-2H-pyran-4-yloxy)quinazolin-4-amine]
water maze performance ([1]; APP/PS1 mice, 2 mg/kg/d, 3-5 weeks treatment): fails to improve water maze performance | impaired rate of acquisition during swims to a hidden platform [1, 14]: no improvement | memory recall during 60 sec probe trial [1, 14]: no improvement | latencies to the hidden platform (spatial learning) [1, 15]: eliminates the pre-existing transgenic deficit | probe trial, preference for target quadrant [1, 15]: same strong preference for the target quadrant as do WT mice | latencies to a hidden platform ([1]; WT mice, 5 mg/kg/d): not altered | Novel Object Recognition performance [2]: performance equal to the WT mice | IC50 [3]: > 250 µM | Pyk2 substrate binding ([3]; AZD0530 at concentrations up to 100 μM): unaffected | increase of p(Y402)Pyk2 in hippocampal CA1 and CA3 cell body layers (histology) ([4]; APP/PS1 mice, 5 mg/kg/d for 7 weeks): reversed by AZD0530 treatment | pPyk2 level ([4]; WT mice): does not significantly alter pPyk2 | activated pPyk2 level (immunoblot), hippocampus ([4]; aged APP/PS1 mice, 5 mg/kg/d): reduces activated pPyk2 level to that of WT mice exposed to vehicle | NOAEL at 273 days ([5]; both, beagle, dog, in vivo, po): > 5 mg/kg/day | body weight, hematological and coagulation parameters vs vehicle ([5]; dog, 0.5, 2 or 5 mg/kg/d, 273 days): no statistically significant difference | tolerability ([5]; dog, 39 weeks oral gavage at 0.5, 2 and 5 mg/kg/day): tolerated at all dose levels tested | abnormal measurement or pathology ([5]; dog, any group including 5 mg/kg/d, 273 days): No significantly abnormal measurement or evidence of pathology was detected | astrocytic reaction (GFAP) [6]: no significant change | extent of microglial induction (Iba1) [6]: significantly reduced | basal Pyk2 activation ([7]; brain slices without Aβo): suppresses | Aβo stimulation of Pyk2 activation ([7]; brain slices, 1 μM Aβo 30 min): blocks | synapse density (PSD-95, SV2a puncta) ([8]; APP/PS1 transgenic mice): fully restores synaptic puncta to WT levels | synapse density (PSD-95, SV2a puncta) ([8]; WT mice): does not alter synapse density | human Tau transgene mRNA (qRT-PCR) ([9]; 3xTg-AD mice, 5 mg/kg/d, data not shown): not changed | decrease of pTau pS396 vs control 3xTg [9, 16]: 53% | decrease of total Tau vs control 3xTg [9, 16]: 74% | decrease of insoluble human Tau [9, 17]: 56% | decrease of insoluble total Tau [9, 17]: 41% | basal phosphorylation of NR2B ([10]; brain slices without Aβo): suppresses | Aβo-induced phosphorylation of NR2B ([10]; brain slices, 1 μM Aβo 30 min): full blocks | half-life of the compound in humans [11]: between one and two days | inhibition at 5 mg/kg/day ([12]; Mus musculus, po, read-out: expected inhibition of Fyn kinase activity in brain): ≥ 50% | apparent brain half-life ([12]; mouse, 5 mg/kg/d for 3 days): 16 h | peak brain level ([12]; mouse, 5 mg/kg/d oral b.i.d., 30-60 min after dosing, 5 mg/kg/day): 27 ng/g and 50 nM | peak CSF level ([12]; mouse, 5 mg/kg/d, one pooled sample, 5 mg/kg/day): 7 ng/ml and 13 nM | CSF level as % of brain level ([12]; mouse, 6 oral b.i.d. doses, 30-60 min after dosing): about 35% | concentration at 12 h ([12]; mouse, CSF, oral, 5 mg/kg/day, trough CSF range calculated from multiple brain samples, 5 mg/kg/d): 3.1 ng/mL to 7.6 ng/mL and 5.8 nM to 14 nM | half-life ([12]; mouse, brain, oral, 5 mg/kg/day, apparent brain half-life, 5 mg/kg/d for 3 days): ~960 min | APP/Aβ metabolism ([13]; 3xTg-AD mice, data not shown): no effect | APP fragments, Aβ plaque and different Aβ species vs vehicle-treated transgenic mice ([13]; APP/PS1 mice, 7 weeks): no difference
